Reference: ChEMBL document CHEMBL1201862, “PubChem BioAssay data set” (2004)
Active and inactive are the calls of the source.

Columns and labels:
[1] = target: T1, Long-chain-fatty-acid--AMP ligase FadD28 (Mycobacterium tuberculosis, UniProt P9WQ59); assay: Fluorescence polarization aasay to screen for inhibitors that compete for the binding of FadD28 to a bisubstrate Measured in Biochemical System Using Plate Reader - 2147-01_Inhibitor_Dose_CherryPick_Activity.; assay type: functional, Mycobacterium tuberculosis H37Rv
T1 sequence (P9WQ59 whole entry): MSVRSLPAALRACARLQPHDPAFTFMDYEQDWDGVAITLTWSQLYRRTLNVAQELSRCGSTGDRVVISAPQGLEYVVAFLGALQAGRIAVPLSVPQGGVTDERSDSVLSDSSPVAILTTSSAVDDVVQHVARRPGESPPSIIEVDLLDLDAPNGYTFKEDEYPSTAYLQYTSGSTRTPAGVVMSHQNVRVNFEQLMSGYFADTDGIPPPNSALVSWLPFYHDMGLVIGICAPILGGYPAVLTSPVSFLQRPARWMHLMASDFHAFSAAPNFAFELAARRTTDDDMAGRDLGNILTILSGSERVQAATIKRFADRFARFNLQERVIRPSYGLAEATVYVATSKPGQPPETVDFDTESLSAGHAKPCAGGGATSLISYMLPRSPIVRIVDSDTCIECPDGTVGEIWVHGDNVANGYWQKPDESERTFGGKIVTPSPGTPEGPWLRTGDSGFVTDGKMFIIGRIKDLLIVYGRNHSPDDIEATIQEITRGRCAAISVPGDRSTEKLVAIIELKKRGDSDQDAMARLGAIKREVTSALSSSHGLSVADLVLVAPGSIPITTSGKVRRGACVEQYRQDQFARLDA

Streptokinase A = target: T2, Streptokinase A (Streptococcus pyogenes serotype M1, UniProt P10520); assay: S. pyogenes streptokinase expression inhibitors, potency, dose response, plasminogen activation absorbance, OD405 (AID 1914); assay type: functional, Streptococcus pyogenes M1 GAS;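 also: secreted streptokinase activity via plasminogen activation per viability signal from cell pellet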
T2 sequence (P10520 whole entry): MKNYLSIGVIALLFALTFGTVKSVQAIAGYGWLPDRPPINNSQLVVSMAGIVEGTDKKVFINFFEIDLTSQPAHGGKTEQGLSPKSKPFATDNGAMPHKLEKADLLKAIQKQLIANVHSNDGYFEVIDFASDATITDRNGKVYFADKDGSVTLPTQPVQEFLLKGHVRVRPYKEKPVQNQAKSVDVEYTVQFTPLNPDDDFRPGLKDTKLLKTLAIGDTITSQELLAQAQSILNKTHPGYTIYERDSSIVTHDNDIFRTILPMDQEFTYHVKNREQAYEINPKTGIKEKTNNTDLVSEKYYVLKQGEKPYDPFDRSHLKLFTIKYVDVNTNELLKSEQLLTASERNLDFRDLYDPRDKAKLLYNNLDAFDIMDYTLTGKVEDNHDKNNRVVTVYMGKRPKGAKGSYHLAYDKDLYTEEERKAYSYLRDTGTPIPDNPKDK

[2] = HEp-2 cell cytotoxicity, dose response, cytotoxicity control for RSV inhibitor project, HTS (AID 2410); assay type: functional; details: human respiratory syncytial virus
Streptococcus = assay: Group A Streptococcus viability loss, dose response, counter-screen for streptokinase expression inhibitor project, luminescence, BacTiterGlo (AID 1915); assay type: functional, organism-based;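 also: potency for reduction of bacterial viability or growth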
[3] = target: Dual specificity tyrosine-phosphorylation-regulated kinase 1A (Rattus norvegicus, UniProt Q63470); assay type: biochemical, Homo sapiens
[4] = test system: Streptococcus sp. 'group A'; assay: growth inhibition of control SK(-) GAS strain, dose response, counter-screen for streptokinase expression inhibitor project, luminescence, kanamycin, BacTiterGlo, confirmation (AID 1900); assay type: functional, organism-based
Fatty acid synthase [5] = target: T3, Fatty acid synthase (Homo sapiens, UniProt P49327); assay: FAS thioesterase domain inhibitors, dose response, biochemical, kinetic fluorescence intensity (AID 624326); assay type: functional;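 also: rate of fluorescence rise from hydrolysis of a fluorogenic O-methyl fluorescein ester substrate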
T3 sequence (P49327 whole entry, the tested form may be a part): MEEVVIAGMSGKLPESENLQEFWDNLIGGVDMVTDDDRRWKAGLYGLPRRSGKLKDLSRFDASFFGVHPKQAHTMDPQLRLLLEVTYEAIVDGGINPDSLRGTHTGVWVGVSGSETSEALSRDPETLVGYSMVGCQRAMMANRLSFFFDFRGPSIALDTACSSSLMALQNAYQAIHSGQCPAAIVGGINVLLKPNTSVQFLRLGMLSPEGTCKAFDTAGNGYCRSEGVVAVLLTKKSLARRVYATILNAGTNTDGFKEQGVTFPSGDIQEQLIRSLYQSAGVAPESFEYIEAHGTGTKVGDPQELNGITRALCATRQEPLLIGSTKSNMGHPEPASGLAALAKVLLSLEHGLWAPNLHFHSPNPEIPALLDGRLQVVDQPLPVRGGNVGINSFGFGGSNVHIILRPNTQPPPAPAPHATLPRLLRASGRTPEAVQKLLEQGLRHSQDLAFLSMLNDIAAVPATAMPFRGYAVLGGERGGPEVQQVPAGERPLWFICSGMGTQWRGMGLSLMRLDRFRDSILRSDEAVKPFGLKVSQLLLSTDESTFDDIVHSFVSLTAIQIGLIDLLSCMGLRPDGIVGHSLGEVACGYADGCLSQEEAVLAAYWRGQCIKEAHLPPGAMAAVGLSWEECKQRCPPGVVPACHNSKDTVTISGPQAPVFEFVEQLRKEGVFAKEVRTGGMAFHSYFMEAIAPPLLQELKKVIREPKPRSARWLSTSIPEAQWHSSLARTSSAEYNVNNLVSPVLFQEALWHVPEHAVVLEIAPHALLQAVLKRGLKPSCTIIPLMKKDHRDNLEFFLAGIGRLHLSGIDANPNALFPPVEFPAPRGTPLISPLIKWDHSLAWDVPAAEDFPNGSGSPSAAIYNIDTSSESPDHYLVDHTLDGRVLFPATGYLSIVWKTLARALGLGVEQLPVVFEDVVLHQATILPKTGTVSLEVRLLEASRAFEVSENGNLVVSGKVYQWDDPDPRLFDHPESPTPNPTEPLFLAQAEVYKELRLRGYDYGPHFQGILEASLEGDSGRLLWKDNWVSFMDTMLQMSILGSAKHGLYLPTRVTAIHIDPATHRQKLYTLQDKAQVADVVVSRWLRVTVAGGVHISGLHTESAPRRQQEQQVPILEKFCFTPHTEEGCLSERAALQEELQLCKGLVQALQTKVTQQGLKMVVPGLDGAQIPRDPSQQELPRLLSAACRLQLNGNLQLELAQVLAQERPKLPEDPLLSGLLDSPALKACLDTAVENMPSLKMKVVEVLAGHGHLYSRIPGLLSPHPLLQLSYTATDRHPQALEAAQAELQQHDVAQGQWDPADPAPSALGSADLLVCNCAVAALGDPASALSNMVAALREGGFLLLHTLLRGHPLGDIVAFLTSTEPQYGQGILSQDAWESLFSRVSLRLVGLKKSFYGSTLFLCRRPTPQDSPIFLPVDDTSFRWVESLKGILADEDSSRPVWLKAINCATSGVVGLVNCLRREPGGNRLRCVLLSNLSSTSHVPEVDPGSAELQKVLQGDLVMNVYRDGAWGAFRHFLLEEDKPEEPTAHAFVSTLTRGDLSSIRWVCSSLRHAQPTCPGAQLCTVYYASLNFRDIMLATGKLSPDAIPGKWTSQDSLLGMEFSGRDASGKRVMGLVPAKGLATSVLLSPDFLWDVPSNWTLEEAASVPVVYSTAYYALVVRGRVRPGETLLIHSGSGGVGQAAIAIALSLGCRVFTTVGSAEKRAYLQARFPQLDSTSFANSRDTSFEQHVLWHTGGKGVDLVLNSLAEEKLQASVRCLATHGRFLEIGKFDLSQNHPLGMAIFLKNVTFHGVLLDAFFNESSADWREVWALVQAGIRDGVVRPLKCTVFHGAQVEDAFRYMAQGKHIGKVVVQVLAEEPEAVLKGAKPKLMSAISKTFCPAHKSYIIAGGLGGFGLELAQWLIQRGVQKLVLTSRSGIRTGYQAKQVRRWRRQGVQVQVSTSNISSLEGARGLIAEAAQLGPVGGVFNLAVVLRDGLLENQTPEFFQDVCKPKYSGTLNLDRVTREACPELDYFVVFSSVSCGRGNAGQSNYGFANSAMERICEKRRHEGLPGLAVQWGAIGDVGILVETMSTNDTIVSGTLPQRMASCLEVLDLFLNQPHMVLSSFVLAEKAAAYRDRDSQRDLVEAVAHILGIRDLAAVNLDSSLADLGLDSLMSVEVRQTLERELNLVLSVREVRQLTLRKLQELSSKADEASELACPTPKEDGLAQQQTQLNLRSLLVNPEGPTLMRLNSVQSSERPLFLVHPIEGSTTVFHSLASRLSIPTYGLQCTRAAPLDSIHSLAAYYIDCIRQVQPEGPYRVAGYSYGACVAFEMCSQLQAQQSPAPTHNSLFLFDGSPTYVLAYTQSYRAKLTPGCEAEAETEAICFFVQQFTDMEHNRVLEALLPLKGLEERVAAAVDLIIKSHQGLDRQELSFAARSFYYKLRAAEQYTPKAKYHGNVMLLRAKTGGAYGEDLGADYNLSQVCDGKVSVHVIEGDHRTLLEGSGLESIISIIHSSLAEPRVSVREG

Fatty acid synthase [6] = target: T3, Fatty acid synthase; assay: FAS thioesterase domain inhibitors, dose response, biochemical, endpoint fluorescence intensity, uHTS hits (AID 624327); assay type: functional;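 also: fluorescence from hydrolysis of an O-methyl fluorescein acyl ester substrate by the enzyme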
[7] = target: T4, Replicative DNA helicase DnaB (Mycobacterium tuberculosis, UniProt P9WMR3); assay: DnaB intein splicing inhibitors, dose response, biochemical, cell-free fluorescence (AID 449749); assay type: functional
T4 sequence (P9WMR3 whole entry): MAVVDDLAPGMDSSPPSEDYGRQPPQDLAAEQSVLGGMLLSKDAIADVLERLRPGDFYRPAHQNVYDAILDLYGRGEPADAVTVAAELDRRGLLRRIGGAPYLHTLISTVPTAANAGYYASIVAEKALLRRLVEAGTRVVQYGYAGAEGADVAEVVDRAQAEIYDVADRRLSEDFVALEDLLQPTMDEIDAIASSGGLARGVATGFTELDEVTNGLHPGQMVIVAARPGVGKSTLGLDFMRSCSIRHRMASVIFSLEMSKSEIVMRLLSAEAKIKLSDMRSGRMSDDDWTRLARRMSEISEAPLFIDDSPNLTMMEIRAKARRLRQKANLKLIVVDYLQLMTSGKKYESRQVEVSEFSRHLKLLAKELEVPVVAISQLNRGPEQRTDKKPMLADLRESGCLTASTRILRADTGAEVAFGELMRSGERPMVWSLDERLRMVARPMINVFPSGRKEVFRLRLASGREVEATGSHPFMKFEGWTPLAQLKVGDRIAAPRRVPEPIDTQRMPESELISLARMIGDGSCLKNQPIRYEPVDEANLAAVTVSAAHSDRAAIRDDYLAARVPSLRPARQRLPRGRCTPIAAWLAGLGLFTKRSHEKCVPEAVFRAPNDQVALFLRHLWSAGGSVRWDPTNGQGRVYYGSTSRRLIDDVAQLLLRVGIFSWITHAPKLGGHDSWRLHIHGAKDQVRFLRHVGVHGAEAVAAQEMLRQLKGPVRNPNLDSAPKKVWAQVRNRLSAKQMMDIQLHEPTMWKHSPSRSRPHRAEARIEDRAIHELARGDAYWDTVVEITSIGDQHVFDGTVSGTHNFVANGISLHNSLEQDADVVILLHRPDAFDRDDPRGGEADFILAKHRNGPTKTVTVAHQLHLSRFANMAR

[8] = target: T5, Type-1 angiotensin II receptor (Homo sapiens, UniProt P30556); assay: AT1 receptor antagonists, dose response, selectivity assay for APJ receptor antagonist project, cell-based, uHTS hits (AID 463214); assay type: functional;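 also: antagonist potency against angiotensin II stimulated AT1 response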
T5 sequence (P30556 whole entry): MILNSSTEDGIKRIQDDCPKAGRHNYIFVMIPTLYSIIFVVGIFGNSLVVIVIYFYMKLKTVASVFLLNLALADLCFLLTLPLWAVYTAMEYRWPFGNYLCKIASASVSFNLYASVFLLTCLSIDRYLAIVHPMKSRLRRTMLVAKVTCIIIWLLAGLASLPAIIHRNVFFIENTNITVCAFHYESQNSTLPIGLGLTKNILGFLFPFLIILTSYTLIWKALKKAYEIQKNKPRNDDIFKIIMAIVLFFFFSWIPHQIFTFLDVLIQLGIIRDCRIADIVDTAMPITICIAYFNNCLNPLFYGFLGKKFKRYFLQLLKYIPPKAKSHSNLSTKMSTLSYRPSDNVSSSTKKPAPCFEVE

Beta-galactosidase = Beta-galactosidase (Escherichia coli, UniProt Q8VNN2); assay: PubChem AID 485352; assay type: functional
Chain of Beta-galactosidase (Q8VNN2 whole entry): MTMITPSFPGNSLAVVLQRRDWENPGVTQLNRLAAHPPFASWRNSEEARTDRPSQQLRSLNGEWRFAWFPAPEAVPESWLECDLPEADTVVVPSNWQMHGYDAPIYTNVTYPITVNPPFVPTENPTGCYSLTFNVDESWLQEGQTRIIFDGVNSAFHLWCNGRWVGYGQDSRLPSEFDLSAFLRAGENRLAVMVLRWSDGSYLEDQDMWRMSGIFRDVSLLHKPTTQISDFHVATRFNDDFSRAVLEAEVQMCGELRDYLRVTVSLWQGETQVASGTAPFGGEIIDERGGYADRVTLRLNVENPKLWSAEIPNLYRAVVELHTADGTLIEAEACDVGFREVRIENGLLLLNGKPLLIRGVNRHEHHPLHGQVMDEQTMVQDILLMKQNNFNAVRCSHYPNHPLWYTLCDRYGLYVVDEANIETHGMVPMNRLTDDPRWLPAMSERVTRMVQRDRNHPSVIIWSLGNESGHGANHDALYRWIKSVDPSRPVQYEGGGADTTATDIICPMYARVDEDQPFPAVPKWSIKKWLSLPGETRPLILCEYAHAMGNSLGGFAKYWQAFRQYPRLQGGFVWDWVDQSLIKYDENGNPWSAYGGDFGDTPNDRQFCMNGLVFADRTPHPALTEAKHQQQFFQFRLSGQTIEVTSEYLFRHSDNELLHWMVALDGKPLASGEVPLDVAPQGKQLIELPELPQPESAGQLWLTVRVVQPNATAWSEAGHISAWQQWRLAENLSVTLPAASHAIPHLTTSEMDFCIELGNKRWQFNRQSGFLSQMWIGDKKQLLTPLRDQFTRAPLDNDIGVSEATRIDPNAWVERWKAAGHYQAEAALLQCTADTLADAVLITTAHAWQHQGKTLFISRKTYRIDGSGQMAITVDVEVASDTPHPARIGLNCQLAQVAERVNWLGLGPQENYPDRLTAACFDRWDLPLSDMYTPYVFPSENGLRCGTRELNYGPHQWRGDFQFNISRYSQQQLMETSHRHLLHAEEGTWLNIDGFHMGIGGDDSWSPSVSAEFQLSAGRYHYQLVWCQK

Protein RecA = target: T6, Protein RecA (Mycobacterium tuberculosis, UniProt P9WHJ3); assay: Fluorescence Cell-Free Homogeneous Dose Retest to Identify Inhibitors of RecA-Intein Splicing Activity. [Related pubchem assays (depositor defined):AID2097, AID2223, AID489010, AID492950]; assay type: functional
T6 sequence (P9WHJ3 whole entry): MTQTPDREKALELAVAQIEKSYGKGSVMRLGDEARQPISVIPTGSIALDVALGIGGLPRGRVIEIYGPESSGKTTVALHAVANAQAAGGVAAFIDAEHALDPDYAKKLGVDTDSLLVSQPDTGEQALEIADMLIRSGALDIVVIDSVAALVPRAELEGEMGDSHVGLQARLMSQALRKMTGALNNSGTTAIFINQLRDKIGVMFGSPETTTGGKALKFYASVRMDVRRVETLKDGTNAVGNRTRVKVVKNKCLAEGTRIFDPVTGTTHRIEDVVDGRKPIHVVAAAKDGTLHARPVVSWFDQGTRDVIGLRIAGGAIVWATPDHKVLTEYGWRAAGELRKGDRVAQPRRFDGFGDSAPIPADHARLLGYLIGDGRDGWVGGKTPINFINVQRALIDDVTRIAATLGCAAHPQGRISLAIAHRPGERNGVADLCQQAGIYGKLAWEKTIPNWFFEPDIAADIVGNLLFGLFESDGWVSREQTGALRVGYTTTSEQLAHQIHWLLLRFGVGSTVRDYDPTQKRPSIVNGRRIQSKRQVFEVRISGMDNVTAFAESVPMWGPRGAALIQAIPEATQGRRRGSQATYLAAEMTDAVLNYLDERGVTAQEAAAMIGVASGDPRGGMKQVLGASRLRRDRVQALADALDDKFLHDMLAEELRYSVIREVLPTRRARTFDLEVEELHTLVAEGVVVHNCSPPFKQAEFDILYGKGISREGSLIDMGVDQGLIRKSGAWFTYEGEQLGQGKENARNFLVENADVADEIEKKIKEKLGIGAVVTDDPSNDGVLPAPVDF

[9] = cytotoxicity in HEK-293T cells, dose response, cytotoxicity control for TCR NF-kB inhibitor project, luminescence, T-cell screen hits (AID 489026); assay type: functional, cell-based;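 also: cells exposed to compound about 14 hours before the viability readout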

COc1ccc2c(c1)C(=NNc1ccc(C(=O)O)cc1)c1cc(OC)ccc1-2
AC50 [1]: 88 µM (active)
EC50 (Streptokinase A): > 150 µM (not active)
CC50 [2]: 13.7 µM (active)
IC50 (cells): 10.8 µM (active)
EC50 (Streptococcus): 12.4 µM (active)
AC50 [3]: 0.02 µM (active)
EC50 [4]: 6.28 µM (active)

CCC(C(=O)NC1CCCCC1)n1c(SCc2ccccc2F)nc2ccncc21 (stereo not drawn)
AC50 [1]: > 100 µM (inactive)

O=C(CN1C(=O)S/C(=C\c2cc(Cl)c(O)c(Cl)c2)C1=O)Nc1ccccc1
AC50 [1]: 3.49 µM (active)

O=C(N/C(=C\c1ccc(Br)cc1)C(=O)N1CCOCC1)c1ccc([N+](=O)[O-])cc1
IC50 (Fatty acid synthase [5]): 0.286 µM (active)
IC50 (Fatty acid synthase [6]): 0.262 µM (active)

CCCSc1cc(NCCOC(=O)CCC)c([N+](=O)[O-])c2nonc12
IC50 (Fatty acid synthase [5]): 16.5 µM (active)
AC50 [7]: 55 µM (active)
CC50 [2]: 14.8 µM (active)
IC50 [8]: 11 µM (active)
IC50 (Fatty acid synthase [6]): 16.3 µM (active)
EC50 (Beta-galactosidase): > 40 µM (inactive)
EC50 (Protein RecA): 4.48 µM (active)

COc1ccc(OC)c(COC(=O)c2cc([N+](=O)[O-])ccc2N2CCOCC2)c1
IC50 (Fatty acid synthase [5]): 15.4 µM (active)
IC50 [9]: > 80 µM (inactive)
IC50 (Fatty acid synthase [6]): 11.4 µM (active)

Cc1cccc2cc(/C=N/Nc3ccc(C(=O)O)cc3)c(Cl)nc12
IC50 (Fatty acid synthase [5]): 18.3 µM (active)
IC50 (Fatty acid synthase [6]): 27.4 µM (inactive)
